This is an account of results in PubChem BioAssay AID1259411 (Chemical Carcinogenesis Research Information System (CCRIS), 2018).

Each structure is given as a SMILES string. Activity calls are given as the source filed them. How the calls were made is not given here.

In the data set the test system is rodent carcinogenicity bioassays, tumor incidence. The data set can be described thus: CCRIS carcinogenicity studies. The procedure, abridged: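 Archive of carcinogenicity, mutagenicity, tumor promotion and tumor inhibition results drawn from journals, NCI reports and other sources, expert-reviewed; covers 1985-2011 and is no longer updated.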

As to `C=CC(=O)OCC`, the carcinogen call was “active; positive” (Species: MOUSE, Strain/Sex: B6C3F1/FEMALE, Route: GAVAGE, Dose: 0, 100, 200 MG/KG IN CORN OIL FOR 103 WK, Dose: 0, 100, 200 MG/KG IN CORN OIL FOR 103 WK, Tumor Site: Type of Lesion: FORESTOMACH: SQUAMOUS CELL PAPILLOMA OR CARCINOMA); “inactive; negative” (Species: MOUSE, Strain/Sex: B6C3F1/FEMALE, Route: INHALATION, Dose: 0, 5 PPM 6 HR/D 5 D/WK FOR 24 MO (STUDY DURATION: 24 MO)); “inactive; negative” (Species: MOUSE, Strain/Sex: B6C3F1/FEMALE, Route: INHALATION, Dose: 0, 25, 75 PPM 6 HR/D 5 D/WK FOR 27 MO (STUDY DURATION: 27 MO), Dose: 0, 25, 75 PPM 6 HR/D 5 D/WK FOR 27 MO (STUDY DURATION: 27 MO)); “inactive; negative” (Species: MOUSE, Strain/Sex: B6C3F1/FEMALE, Route: INHALATION, Dose: 0, 225 PPM 6 HR/D 5 D/WK FOR 6 MO (STUDY DURATION: 27 MO)); “active; positive” (Species: MOUSE, Strain/Sex: B6C3F1/MALE, Route: GAVAGE, Dose: 0, 100, 200 MG/KG IN CORN OIL FOR 103 WK, Dose: 0, 100, 200 MG/KG IN CORN OIL FOR 103 WK, Tumor Site: Type of Lesion: FORESTOMACH: SQUAMOUS CELL PAPILLOMA, SQUAMOUS CELL CARCINOMA); “inactive; negative” (Species: MOUSE, Strain/Sex: B6C3F1/MALE, Route: INHALATION, Dose: 0, 5 PPM 6 HR/D 5 D/WK FOR 24 MO (STUDY DURATION: 24 MO)). Further, the carcinogen call runs as follows: (Species: MOUSE, Strain/Sex: B6C3F1/MALE, Route: INHALATION, Dose: 0, 25, 75 PPM 6 HR/D 5 D/WK FOR 27 MO (STUDY DURATION: 27 MO), Dose: 0, 25, 75 PPM 6 HR/D 5 D/WK FOR 27 MO (STUDY DURATION: 27 MO)) “inactive; negative”; (Species: MOUSE, Strain/Sex: B6C3F1/MALE, Route: INHALATION, Dose: 0, 225 PPM 6 HR/D 5 D/WK FOR 6 MO (STUDY DURATION: 27 MO)) “inactive; negative”; (Species: MOUSE, Strain/Sex: C3H/MALE, Route: DERMAL, Dose: 0, 23 MG IN 25 µL ACETONE 3/WK FOR LIFESPAN (STUDY DURATION: LIFESPAN)) “inactive; negative”; (Species: MOUSE, Strain/Sex: TGAC/FEMALE, Route: DERMAL, Dose: 0, 60, 300, 600 UMOL IN 200 µL ACETONE 3/WK FOR 20 WK (STUDY DURATION: 20 WK), Dose: 0, 60, 300, 600 UMOL IN 200 µL ACETONE 3/WK FOR 20 WK (STUDY DURATION: 20 WK)) “inactive; negative”; (Species: RAT, Strain/Sex: F344/FEMALE, Route: GAVAGE, Dose: 0, 100, 200 MG/KG IN CORN OIL FOR 103 WK, Dose: 0, 100, 200 MG/KG IN CORN OIL FOR 103 WK, Tumor Site: Type of Lesion: FORESTOMACH: SQUAMOUS CELL PAPILLOMA, SQUAMOUS CELL PAPILLOMA OR CARCINOMA) “active; positive”; (Species: RAT, Strain/Sex: F344/FEMALE, Route: INHALATION, Dose: 0, 5 PPM 6 HR/D 5 D/WK FOR 24 MO (STUDY DURATION: 24 MO)) “inactive; negative”. Also, the carcinogen call (Species: RAT, Strain/Sex: F344/FEMALE, Route: INHALATION, Dose: 0, 25, 75 PPM 6 HR/D 5 D/WK FOR 27 MO (STUDY DURATION: 27 MO), Dose: 0, 25, 75 PPM 6 HR/D 5 D/WK FOR 27 MO (STUDY DURATION: 27 MO)) is “inactive; negative”; the carcinogen call (Species: RAT, Strain/Sex: F344/FEMALE, Route: INHALATION, Dose: 0, 225 PPM 6 HR/D 5 D/WK FOR 6 MO (STUDY DURATION: 27 MO)) is “inactive; negative”; the carcinogen call (Species: RAT, Strain/Sex: F344/MALE, Route: GAVAGE, Dose: 0, 100, 200 MG/KG IN CORN OIL FOR 103 WK, Dose: 0, 100, 200 MG/KG IN CORN OIL FOR 103 WK, Tumor Site: Type of Lesion: FORESTOMACH: SQUAMOUS CELL PAPILLOMA, SQUAMOUS CELL CARCINOMA) is “active; positive”; the carcinogen call (Species: RAT, Strain/Sex: F344/MALE, Route: INHALATION, Dose: 0, 5 PPM 6 HR/D 5 D/WK FOR 24 MO (STUDY DURATION: 24 MO)) is “inactive; negative”; the carcinogen call (Species: RAT, Strain/Sex: F344/MALE, Route: INHALATION, Dose: 0, 25, 75 PPM 6 HR/D 5 D/WK FOR 27 MO (STUDY DURATION: 27 MO), Dose: 0, 25, 75 PPM 6 HR/D 5 D/WK FOR 27 MO (STUDY DURATION: 27 MO)) was “inactive; negative”; the carcinogen call (Species: RAT, Strain/Sex: F344/MALE, Route: INHALATION, Dose: 0, 225 PPM 6 HR/D 5 D/WK FOR 6 MO (STUDY DURATION: 27 MO)) is “inactive; negative”.
For `O=[N+]([O-])c1c2ccccc2c2ccc3cccc4ccc1c2c43`, the carcinogen call (Species: MOUSE, Strain/Sex: ICR/FEMALE, Route: INTRAPERITONEAL, Dose: 0, 14 UG TOTAL DOSE (2 UG/5 µL, 4 UG/10 µL, 8 UG/20 µL DMSO ON DAYS 1,8 AND 15), 70 UG TOTAL DOSE (10 UG/5 µL, 20 UG/10, Dose: 0, 14 UG TOTAL DOSE (2 UG/5 µL, 4 UG/10 µL, 8 UG/20 µL DMSO ON DAYS 1,8 AND 15), 70 UG TOTAL DOSE (10 UG/5 µL, 20 UG/10) is “inactive; negative” and the carcinogen call (Species: MOUSE, Strain/Sex: ICR/MALE, Route: INTRAPERITONEAL, Dose: 0, 14 UG TOTAL DOSE (2 UG/5 µL, 4 UG/10 µL, 8 UG/20 µL DMSO ON DAYS 1,8 AND 15), 70 UG TOTAL DOSE (10 UG/5 µL, 20 UG/10, Dose: 0, 14 UG TOTAL DOSE (2 UG/5 µL, 4 UG/10 µL, 8 UG/20 µL DMSO ON DAYS 1,8 AND 15), 70 UG TOTAL DOSE (10 UG/5 µL, 20 UG/10) is “inactive; negative”.
Turning to `CC(=O)N[C@@H](C=O)[C@@H](O)[C@H](O)[C@H](O)CO`, the carcinogen call is “inactive; negative” (Species: Rat, Strain/Sex: F344/Female, Route: Oral, Dose: 0, 2.5, 5% in diet for 104 wk) and “inactive; negative” (Species: Rat, Strain/Sex: F344/Male, Route: Oral, Dose: 0, 2.5, 5% in diet for 104 wk).
Turning to `CC(=O)N1C(C)CN(N=O)CC1C` (stereo unspecified), the carcinogen call (Species: RAT, Strain/Sex: F344/FEMALE, Route: ORAL, Dose: 0, 130 MG/L IN DRINKING WATER 5 D/WK FOR 30 WK, STUDY DURATION: 30-40 WK, Dose: 0, 130 MG/L IN DRINKING WATER 5 D/WK FOR 30 WK, STUDY DURATION: 30-40 WK, Tumor Site: Type of Lesion: ESOPHAGUS: CARCINOMA, TONGUE: PAPILLOMA OR CARCINOMA) is “active; positive”.
As to `Clc1ccc(-c2ccc(Cl)c(Cl)c2Cl)c(Cl)c1Cl`, the carcinogen call by setting is: (Species: RAT, Strain/Sex: SHERMAN/FEMALE, Route: ORAL, Dose: 100 MG/KG IN DIET, Tumor Site: Type of Lesion: LIVER: NEOPLASTIC NODULE, HEPATOCELLULAR CARCINOMA) “active; positive”; (Species: RAT, Strain/Sex: SPRAGUE-DAWLEY/FEMALE, Route: ORAL, Dose: 0, 25, 50, 100 PPM IN DIET FOR THE DURATION OF STUDY (STUDY DURATION: 24 MO), Dose: 0, 25, 50, 100 PPM IN DIET FOR THE DURATION OF STUDY (STUDY DURATION: 24 MO), Tumor Site: Type of Lesion: LIVER: TUMOR) “active; positive”; (Species: RAT, Strain/Sex: SPRAGUE-DAWLEY/FEMALE, Route: ORAL, Dose: 0, 100 PPM IN DIET FOR 16 MO AND 50 PPM FOR AN ADDITIONAL 8 MO FOLLOWED BY CONTROL DIET FOR 5 MO (STUDY DURATION: 29 MO), Tumor Site: Type of Lesion: LIVER: TRABECULAR CARCINOMA, ADENOCARCINOMA) “active; positive”; (Species: RAT, Strain/Sex: SPRAGUE-DAWLEY/MALE, Route: ORAL, Dose: 0, 25, 50, 100 PPM IN DIET FOR THE DURATION OF STUDY (STUDY DURATION: 24 MO), Dose: 0, 25, 50, 100 PPM IN DIET FOR THE DURATION OF STUDY (STUDY DURATION: 24 MO), Tumor Site: Type of Lesion: THYROID GLAND: ADENOMA OR CARCINOMA, LIVER: TUMOR) “active; positive”; (Species: RAT, Strain/Sex: SPRAGUE-DAWLEY/MALE, Route: ORAL, Dose: 0, 100 PPM IN DIET FOR 16 MO AND 50 PPM FOR AN ADDITIONAL 8 MO FOLLOWED BY CONTROL DIET FOR 5 MO (STUDY DURATION: 29 MO)) “inactive; negative”; (Species: RAT, Strain/Sex: WISTAR/MALE, Route: ORAL, Dose: 0, 50, 100 PPM IN A 10% PROTEIN DIET FOR 4 MO (STUDY DURATION: 4 MO), Dose: 0, 50, 100 PPM IN A 10% PROTEIN DIET FOR 4 MO (STUDY DURATION: 4 MO), Tumor Site: Type of Lesion: THYMUS: NEOPLASM, SPLEEN: NEOPLASM) “active; positive”.
As to `CC(C)(C)c1cc([N+](=O)[O-])cc([N+](=O)[O-])c1OS(C)(=O)=O`, the carcinogen call runs as follows: (Species: RAT, Strain/Sex: SPRAGUE-DAWLEY/FEMALE, Route: ORAL, Dose: 0, 25, 100, 400 PPM IN DIET FOR 1 YR (STUDY DURATION: 1 YR), Dose: 0, 25, 100, 400 PPM IN DIET FOR 1 YR (STUDY DURATION: 1 YR)) “inactive; negative”; (Species: RAT, Strain/Sex: SPRAGUE-DAWLEY/MALE, Route: ORAL, Dose: 0, 25, 100, 400 PPM IN DIET FOR 1 YR (STUDY DURATION: 1 YR), Dose: 0, 25, 100, 400 PPM IN DIET FOR 1 YR (STUDY DURATION: 1 YR)) “inactive; negative”.
